Reference: patent publication US6218112A, “Optimization of gene delivery and gene delivery system” (Cobra Therapeutics Limited, priority 1997, dated 2001)
pKd: −log10 of the molar value. Entries after “also recorded” stand apart in the source; their conditions may differ. * marks the point of attachment. Palmitoyl = CCCCCCCCCCCCCCCC(=O)*; Acm = CC(=O)NC*

Experiments:
Tumor Cells = experiment: In vitro transfection with complexes containing lipidated peptides; assay type: cell-based
Method: (§1) After incubation the cells are lysed and are assayed for gene expression. In the case of the luciferase reporter gene, luciferin and ATP are added to lysed cells and the light emitted is measured with a luminometer (see deWet et al., supra).
For the data provided in FIG. 8, complexes were assembled as described herein using NBC2 and Lip2 as condensing peptides.

cells = experiment: Transfection efficiency / activity of complexes (general statement); assay type: cell-based; details: related to affinity for nucleic acid
[1] = system: plasmid nucleic acid pRSVLuc; experiment: Surface plasmon resonance (BIAcore) binding kinetics of peptides/conjugates to immobilized biotinylated plasmid DNA
Method: In the examples described below, SPR was detected using the BIAcore system. This machine contained an SPR detector and an integrated microfluidic cartridge which is engineered such that an analyte solution (cationic peptide) is continuously passed over the sensor chip. The sensor chip consists of a glass plate coated with a thin film of gold covered in a layer of carboyxymethyl dextran. The chip used has a dextran layer to which streptavidin is covalently attached. The chip is prepared for use by adding biotinylated nucleic acid which will be bound to the chip via the streptavidin-biotin interaction, and the same chip is used in a series of experiments.
As material binds to the immobilized nucleic acid molecule on the sensor chip, the SPR angle of plane polarized light shining on the surface of the chip is monitored by the detector. Changes in angle are defined as resonance units (RU) and data are collected every second. Background effects are detected and automatically subtracted by the use of a control flow cell in line with the nucleic acid flow cell.
A typical sensorgram has three phases: an association phase, an equilibrium phase and a dissociation phase (see FIG. 1). The rise in signal occurs as more peptide binds to the immobilized plasmid DNA until equilibrium conditions are reached. The height of the peak is directly proportional to the mass of peptide bound. If the flow continues with buffer containing no peptide, peptide begins to dissociate from the complex and the resonance signal is reduced. The sensorgram can be used to compute apparent rate constants for each of the three individual processes.
(1) dC/dt=ka [PF ] [Pmax -PB ]-kd [PB ]
Measurement of Binding Kinetics by Surface Plasmon Resonance
A 6 kilobase (kb) plasmid DNA (pRSVLuc) was biotinylated using photoactivatable biotin (Pierce and Warriner) as per manufacturer's instructions.
A sensor chip with immobilized streptavidin (SA5) was conditioned following manufacturer's instructions, i.e., three one-minute injections of 1 M NaCl: 50 mM NaOH followed by one 1 min injection of 0.5% SDS. Flow rate on the BlAcore sensing device was 20 μl per min, running buffer was phosphate buffered saline (PBS). Flow path was flow cells 1 and 2.
The flow path was switched to flow cell 2 only and the flow rate was reduced to 10 μl per minute. Biotinylated plasmid at a concentration of […] in 0.5M NaCl was injected for 3 mins.
Phosphate buffered saline was used as running buffer at a flow rate of 20 μl per minute. The flow path was over flow cells 1 and 2. Flow cell 1 was used as a reference cell. The experiments were carried out at a temperature of 25° C.
Peptides were injected at various concentrations for three minutes. The injection was followed by a 5 min dissociation phase before the injection port was washed. The sensor chip was regenerated by the injection of 2M NaCl for 1 min. If necessary, this injection was repeated to bring the response back down to baseline before the next peptide sample was injected.
The data was analysed using the methods described in the handbook (BIAevaluation 2.1. Software Handbook, Pharmacia Biosensor AB, Uppsala, Sweden).
Essentially the plots were evaluated as follows: The dissociation constant, kd, was determined first. A curve or family of curves (same NBC at different concentrations) were plotted as response (Y) versus time as Ln (Yo/Y) versus time. In the area where the Ln(Yo/Y) curve was linear, a fit of the default dissociation model [AB]=[A]+[B] was made. The association constant, ka, was then calculated by fitting the related association model on that part of the association curve where a plot of In(abs(dY/dt) versus time was linear. KD were approximated by dividing the calculated kd with the calculated ka.

Jurkat cell line = experiment: In vitro transfection with pRSVLuc (luciferase) condensed on peptides; assay type: cell-based; details: peptide 2 μg/μg plasmid DNA, luciferase after 24 h, FIG. 7
Method: as §1
Cell lines such as Jurkat and K562 grow in suspension and can be transfected and the level of transgene expression (luciferase activity) determined b) the following method. Cells are harvested on the day of assay by centrifugation at 1200 rpm for 5 mins at room temperature. The cell pellet is resuspended in phosphate buffered saline and re-centrifuged. This operation is performed twice. […] The cells are then aliquoted into tubes and 0.75 ml of RPMI medium added, followed by 0.04-0.08 ml of 100 mM Chloroquine and finally 0.25 ml of DNA-complex solution. The transfection is then allowed to proceed by incubating the cells at 37° C. for 4 h. After this time the cells are harvested by centrifugation at 2000 rpm. The cells are then suspended in 1 ml of RPMI medium and re-centrifuged. Finally the cells are suspended in 0.5 ml RPMI medium containing 10% foetal bovine serum. Each 0.5 ml of transfected cell suspension is transferred to a well of a 12 well plastic culture plate containing 1.5 ml of RPMI 10% FBS. The original transfection tube is rinsed with a further 1 ml of medium and the wash transferred to the culture dish making a final volume of 3 ml. The culture plate is then incubated at 37° C. for 24-90 h in an atmosphere of 5% CO2. The contents of each well in the culture dish are transferred to centrifuge tubes and the cells collected by centrifugation at 13000 rpm. The pellet is resuspended in 0.12 ml of Lysis Buffer (100 mM sodium phosphate, pH 7.8; 8 mM magnesium chloride, 1 mM EDTA; 1% Triton X-100 and 15% glycerol) and agitated with a pipette. The lysate is centrifuged at 13000 rpm for 1 min and the supernatant collected. 80 μl of the supernatant are transferred to a luminometer tube. The luciferase activity is then assayed using a Berthold Lumat L9501 luminometer. The assay buffer used is Lysis Buffer containing 10 mM Luciferin and 100 mM ATP. Light produced by the luciferase is integrated over 4s and is described as relative light units (RLU). The data are converted to RLU/ml of lysate, RLU/cell or RLU/mg protein (protein concentration of the lysate having been determined in this case by the BioRAD Lowry assay.
In order to compare the relative efficiency of transfection of complexes composed of different NBC condensation peptides or poly-L-lysine, pRSVLuc DNA at a concentration of 100 μg/ml was condensed using peptide at a ratio of 2 μg/μg plasmid DNA as described herein with the following deviation: prior to addition to the cells (Jurkat cell line) the complexes were diluted to 20 μg/ml with 10% PEG 10 000; 37 mM sodium chloride; 25 mM sodium phosphate, pH 7.4. The cells were assayed for luciferase after 24 h.

[2] = system: KLN-205 squamous epithelial syngenic tumour cells; experiment: In vivo transfection of KLN-205 tumours in DBA2 mice by local injection of peptide/plasmid complexes (nitroreductase immunostaining); set-up: species or system mouse; details: 0.5 μg peptide/μg DNA, intratumoural injection
Method: A representative in via cell transfection system is transfection of tumor cells using a murine carcinoma model.
The murine carcinoma model DBA2 containing the squamous epithelial syngenic tumour cell line KLN-205 was prepared as described in the Examples. A transfecting complex was prepared using a solution of plasmid DNA encoding a reporter gene or, for example, nitroreductase and a selected NBC peptide 0.5 μg peptide/μg DNA, as described herein. Where desired, a conjugate peptide was added to the transfecting complex, at a concentration of 0.1-0.3 μg […] peptide/μg DNA.
Transfection efficiency may be determined in a number of ways, including assessing the effect of the reporter gene on the target tissue, or by quantitating the gene product. Below, tissues samples were obtained and nitroreductase gene expression was ascertained via staining of tissue sections.
The ability to transfect tumor cells in vivo in mice was tested using plasmid nucleic acid carrying the nitroreductase reporter gene condensed on each of the following peptides: NBC15, NBC8, NBC9, NBC11, NBC7.
DBA2--male mice, aged 5-10 weeks were injected subcutaneously in each flank with a squamous epithelial syngenic tumour cell line KLN-205. The cell line was grown up in 175 ml T-flasks in standard EMEM medium containing 10% foetal calf serum. When the cells reached a density of 4×10^6 they were suspended by a standard trypsinization technique, washed in PBS and diluted to a final concentration of […].
The anaesthetic was Enflurane (Alynane; Anaquest, Ltd., Windlesham, Surrey UK): Ketamine (10% Ketaset, Willows Francis Veterinary, Cramley, West Sussex, UK); Rompun (2%, Bayer UK, Ltd., Suffolk, UK). For 10 ml anaesthetic mixture: 8.5 ml PBS; 1 ml Ketamine; 0.5 ml Rompun. Each animal was injected intra-peritoneally with 200 μl/animal using 1 ml syringe with 25 gauge needle. Once anaesthetized, the tumour is manipulated between the fingers lifting it slightly away from the animal's body and at the same time apply minimum pressure to the tumour. Using a 0.5 ml insulin needle the formulated delivery vehicle (a plasmid containing the E. coli nitroreductase gene condensed on a peptide at a ratio of 0.5 μg peptide/μg DNA) to be injected is taken up and the tumour is injected horizontally trying to avoid any visible blood vessels and necrotic or abnormal tissue. Daily monitoring is continued until the experiment is terminated.
7μ sections of frozen tumour tissue are prepared using standard methods and a Cryostat and air dried. Sections are fixed with freshly prepared 4% PFA/PBS for 30 mins at room temperature and then washed twice with 0.01% Tween-20/PBS 5 mins each wash. Sections are then immersed in 0.25% hydrogen peroxide/PBS, at room temperature (20C.) for 30 mins, and then washed three times in 0.01% Tween 20/PBS for 5 mins each wash. Sections are then permeabilised by treatment with ice cold 0.1 % TRITON X-100 for 5 mins, followed by a further two washes in 0.01% Tween-20/PBS 5mins each wash. The sections are then blocked with 5% NGS/PBS 60mins at room temperature in a wetbox. After decanting the blocking solution, 0.5 ml diluted antiserum/slide (1:400 in 2.5% NGS) is added and the sections incubated for 60 mins at room temperature. Slides are then washed three times in 0.01% Tween-20/PBS 5 mins each wash. Secondary antibody (0.5 ml) from ABC Elite Vector stain kit is added as follows and incubated 30 mins at room temperature in a wetbox.
The tumour is a murine syngenic squamous carcinoma produced by subcutaneous injection of KLN205 cells. When the tumours were approximately 4 mm in diameter they were injected with 20 μl of plasmid DNA formulated with the NBC15 peptide. After 48 h the tumours were excised and sectioned by standard histological techniques and immunostained for expression of the transgene (E. coli nitroreductase). […] In this case the tumours were injected with the same plasmid formulated in 0.5 μg NBC9 peptide/μg DNA.

“CH3-(CH2)14-CONH-KPKAAKPKKPKKKRKVEKKSPKKAKKPAAC(Acm)SEQ ID NO:11-COOH (Palmitoyl-KPKAAKPKKPKKKRKVEKKSPKKAKKPAAC(Acm)-OH; SMILES CCCCCCCCCCCCCCCC(=O)N[C@@H](CCCCN)C(=O)N1CCC[C@H]1C(=O)N[C@@H](CCCCN)C(=O)N[C@@H](C)C(=O)N[C@@H](C)C(=O)N[C@@H](CCCCN)C(=O)N1CCC[C@H]1C(=O)N[C@@H](CCCCN)C(=O)N[C@@H](CCCCN)C(=O)N1CCC[C@H]1C(=O)N[C@@H](CCCCN)C(=O)N[C@@H](CCCCN)C(=O)N[C@@H](CCCCN)C(=O)N[C@@H](CCCNC(=N)N)C(=O)N[C@@H](CCCCN)C(=O)N[C@H](C(=O)N[C@@H](CCC(=O)O)C(=O)N[C@@H](CCCCN)C(=O)N[C@@H](CCCCN)C(=O)N[C@@H](CO)C(=O)N1CCC[C@H]1C(=O)N[C@@H](CCCCN)C(=O)N[C@@H](CCCCN)C(=O)N[C@@H](C)C(=O)N[C@@H](CCCCN)C(=O)N[C@@H](CCCCN)C(=O)N1CCC[C@H]1C(=O)N[C@@H](C)C(=O)N[C@@H](C)C(=O)N[C@@H](CSCNC(C)=O)C(=O)O)C(C)C) [Lip2]” was tested, and the “transfection efficiency, lipidated peptide with free underivatized peptide” value (Tumor Cells; Lip2 with NBC2, FIG. 8) was “transfection efficiency is augmented; also recorded: more than two orders of magnitude” and the “transfection efficiency, condensation with lipidated peptide alone” value (Tumor Cells; complete condensation with palmitoyl-NBC2 (Lip2) alone) was “extremely poor transfection efficiencies”.

With “NH2-KKSPKKAKKPAAKKSPKKAKKPAAKKSPKKAKKPAAKKSPKKAKKPAYC(Acm)-COOH (H-KKSPKKAKKPAAKKSPKKAKKPAAKKSPKKAKKPAAKKSPKKAKKPAYC(Acm)-OH) [NBC10]” the transfection efficiency (cells) was “not completely deleterious to transfection”, the ka ([1]; apparent rate constant for association, SPR, PBS, 25° C.) was 219000 M⁻¹ s⁻¹ and the kd ([1]; apparent rate constant for dissociation, SPR, PBS, 25° C.) was 0.0011 s⁻¹. For the same substance, the “apparent dissociation constant kd” value ([1]; approximate values) was “approximately 1×10^-3 sec^-1” and the pKd ([1]; approximate values, read-out: equilibrium dissociation constant KD) was about 8.30.

With poly-lysine [reference compound] the “rank in order of relative transfection efficiency (most to least efficient)” value (Jurkat cell line) was “NBC11>NBC13>NBC8>>NBC15>>>polylysine”, the “ranking by numbers of transfected tumor cells (most to least efficient)” value [2] was “NBC15>NBC8, NBC9, NBC11>NBC7>>>poly-lysine” and the “number of transfected tumor cells / level of transfection” value ([2]; 48 h, nitroreductase immunostaining) was “the fewest number of transfected tumor cells”.
